pIC50: −log10 of the molar value. Active and inactive are the calls of the source.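 Rule for the calls: active = IC50 for blocking malaria parasite growth in red cells at or below 10 µM; inactive = the rest.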 Bounds are passed on as bounds.

What is called pIC50 is the IC50 on a negative log10 scale, so that one unit is a factor of ten. The IC50 is the midpoint of a concentration-inhibition curve.

This assay relates to P. falciparum 3D7 in RBCs, 3H-hypoxanthine incorporation, 48 h. Kind of assay: antimalarial activity in infected erythrocytes – cell-based, radiolabel, RBCs, powder samples, M18AAP inhibitor project, late-stage follow-up (AID 489011).
As to `O=C(COc1ccccc1C(=O)N/N=C/c1ccc(O)c(O)c1)N/N=C/c1ccc(O)c(O)c1`, the pIC50 was 5.22.
Same read-out and setting: for `CCC(C)c1ccc(O)c(N)c1` (configuration not stated) the value was 5.22.
For the compound `Br/C(C=Nn1cnnc1)=C\c1ccccc1`, the IC50 was 11 µM (inactive).
Take `Oc1ccc(CCNc2c3ccccc3nc3ccccc23)cc1O`: the pIC50 was greater than 5.80.
Consider `Cc1cc(C)n2c(=S)[nH]nc2n1`, for which the IC50 is > 25 µM (inactive).
For `Cc1cc(C)cc(C(=O)n2cnnc2N)c1`, the pIC50 was 5.15.
Take `Oc1ccc(-c2csc(-c3ccccc3)n2)cc1O`: the IC50 was > 25 µM (inactive).

The values above are taken from PubChem BioAssay AID489011 (The Scripps Research Institute Molecular Screening Center, 2010).
